In article PMC7596181 (Frontiers in Immunology, 2020):

Legend:
human TLR4 [1] = target: T1, human TLR4 (Homo sapiens, UniProt O00206+Q9Y6Y9); experiment: SEAP assay, agonist dose response in human TLR4 HEK-Blue reporter cells; type: cell-based; parameters: host or cells: HEK-Blue (HEK293-derived) reporter cells; settings: human TLR4 HEK-Blue reporter cells
Procedure: Human and mouse HEK-Blue reporter cells express human or mouse CD14, MD2, and TLR4 and secreted embryonic alkaline phosphatase (SEAP) under control of a promoter with binding sites for NFκB and AP-1 transcription factors (InvivoGen cat. nos. hkb-htlr4 and hkb-mtlr4). Cells were cultured as directed by the supplier, with the exception that Glutamax (ThermoFisher cat. no. 10569010) was used in place of L-glutamine, and TrypLE Express (ThermoFisher cat. no. 12605010) was used to release adherent cells for each passage. BALB/c mouse RAW264.7 and human THP-1 cells (ATCC® cat. nos. TIB-71 and TIB-202) were cultured in DMEM (4.5 g/L D-Glucose with 2 mM L-glutamine, 1 mM sodium pyruvate, 100 U/ml penicillin and 100 μg/ml streptomycin) supplemented with 10% heat-inactivated FBS. THP-1 cells were exposed to phorbol-12-myristate-13-acetate (PMA, InvivoGen cat no. tlrl-pma), 5 ng/ml, for 48 h prior to treatment with TLR4 agonists. Bone marrow-derived dendritic cells (BMDCs) were generated using C57BL/6 mouse femurs following the exact method published by Lutz et al. ([29]) except that 5 rather than 20 ng/ml recombinant GM-CSF was used to differentiate the DC. Human peripheral blood […] (PBMCs) were prepared from venous blood of healthy volunteers that had been collected using sodium citrate as anti-coagulant, 20 ml of which was mixed with 15 ml calcium- and magnesium-free Hank’s Balanced Saline Solution (HBSS) and then laid over 6 ml Histopaque®-1077 (1.077 g/ml, Sigma-Aldrich cat no. 10771) for density gradient centrifugation. The buffy coat layer was collected by pipette, washed once in HBSS, once in serum-free RPMI-1640, and then the PBMCs were resuspended in RPMI-1640 supplemented with 100 U/ml penicillin, 100 µg/ml streptomycin, 1 mM Na-Pyruvate, 2 mM L-glutamine, 50 μM βME and 10% heat-inactivated, male AB human serum for culture.
(§1) SEAP assays were performed to evaluate the extent to which TLR4 signaling was activated in HEK-Blue reporter cells expressing mouse or human receptors (CD14, MD2 and TLR4). Reporter cells were harvested when 70–80% confluent and plated in 96-well, flat-bottom microtiter plates either 1 h, one day or two days (5 × 10^4, 4 × 10^4 or 2 × 10^4 cells/well, respectively) before addition of TLR4 agonists for 18–24 h. Culture supernatants were transferred to U-bottom microtiter plates, centrifuged and transferred again to microtiter plates to ensure reporter cells were not present. The culture supernatants were added to QUANTI-BLUE substrate following instructions provided by the manufacturer (InvivoGen cat. nos. rep-qbl or rep-qbs) and incubated at 37°C in a tissue culture incubator. At successive intervals beginning 10 min after mixing the supernatants and substrate, the plates were placed in an Emax plate reader (Molecular Devices LLC) and optical density was measured at visible light wavelength […] (OD650). The shortest incubations at which dose response curve fits produced maximal R^2 ‘goodness of fit’ values, as determined by GraphPad Prism software, were used for analysis.
Pharmacological profiles of the TLR4 reagents were generated by performing dose response curves in one of four formats. 1) Agonist potency and efficacy (EC50 and height of dose plateau, respectively) were measured by diluting TLR4 reagents successively in complete culture medium [DMEM or RPMI supplemented with fetal bovine serum (FBS) or RPMI supplemented with human serum, depending on cell-type]. Half-log step dilutions were performed in 96-well, U-bottom microtiter plates using a multichannel pipette to transfer and mix the suspensions, with fresh tips used for each dilution step. One-tenth (20 μl) volumes from wells of the dilution plate were then transferred to wells containing cells that had been plated in nine-tenth volumes (180 μl) of culture medium. […]

human TLR4 [2] = target: T1, human TLR4; experiment: Inhibition curves (IC50 format): antagonist diluted in a fixed concentration of reference agonist, human TLR4 HEK-Blue SEAP; type: cell-based; parameters: host or cells: HEK-Blue (HEK293-derived) reporter cells; settings: for inhibition of 3D-6A-PHAD stimulation: fixed 3D-6A-PHAD 300 nM; for IC50: 95% CI given; for inhibition of PHAD stimulation: fixed PHAD 1 μM, 22 h
Procedure: as §1
Pharmacological profiles of the TLR4 reagents were generated by performing dose response curves in one of four formats. 1) Agonist potency and efficacy (EC50 and height of dose plateau, respectively) were measured by diluting TLR4 reagents successively in complete culture medium [DMEM or RPMI supplemented with fetal bovine serum (FBS) or RPMI supplemented with human serum, depending on cell-type]. Half-log step dilutions were performed in 96-well, U-bottom microtiter plates using a multichannel pipette to transfer and mix the suspensions, with fresh tips used for each dilution step. One-tenth (20 μl) volumes from wells of the dilution plate were then transferred to wells containing cells that had been plated in nine-tenth volumes (180 μl) of culture medium. 2) Mixed agonist–antagonist potency and efficacy were measured by mixing a TLR4 agonist with a candidate antagonist at a fixed ratio and then performing half-log step dilutions before treating HEK reporter cells. Analysis of values obtained from SEAP assays of culture supernatants was then performed as described for preparations containing agonist alone, above. 3) Competitive vs allosteric or non-competitive antagonist type was evaluated by diluting a reference agonist within a fixed concentration of a candidate inhibitor in half-log steps, treating HEK reporter cells, performing SEAP assays and then analyzing the data as described for agonist assays, above. Competitive antagonists are characterized by values that reach the same dose plateau as for a reference, full agonist, while shifting potency to higher EC50 values. […] 4) Inhibitory potency (IC50) was measured by diluting antagonists within a fixed concentration of a reference agonist, treating HEK reporter cells and performing SEAP assays as described.

T1 sequence (O00206 24-839): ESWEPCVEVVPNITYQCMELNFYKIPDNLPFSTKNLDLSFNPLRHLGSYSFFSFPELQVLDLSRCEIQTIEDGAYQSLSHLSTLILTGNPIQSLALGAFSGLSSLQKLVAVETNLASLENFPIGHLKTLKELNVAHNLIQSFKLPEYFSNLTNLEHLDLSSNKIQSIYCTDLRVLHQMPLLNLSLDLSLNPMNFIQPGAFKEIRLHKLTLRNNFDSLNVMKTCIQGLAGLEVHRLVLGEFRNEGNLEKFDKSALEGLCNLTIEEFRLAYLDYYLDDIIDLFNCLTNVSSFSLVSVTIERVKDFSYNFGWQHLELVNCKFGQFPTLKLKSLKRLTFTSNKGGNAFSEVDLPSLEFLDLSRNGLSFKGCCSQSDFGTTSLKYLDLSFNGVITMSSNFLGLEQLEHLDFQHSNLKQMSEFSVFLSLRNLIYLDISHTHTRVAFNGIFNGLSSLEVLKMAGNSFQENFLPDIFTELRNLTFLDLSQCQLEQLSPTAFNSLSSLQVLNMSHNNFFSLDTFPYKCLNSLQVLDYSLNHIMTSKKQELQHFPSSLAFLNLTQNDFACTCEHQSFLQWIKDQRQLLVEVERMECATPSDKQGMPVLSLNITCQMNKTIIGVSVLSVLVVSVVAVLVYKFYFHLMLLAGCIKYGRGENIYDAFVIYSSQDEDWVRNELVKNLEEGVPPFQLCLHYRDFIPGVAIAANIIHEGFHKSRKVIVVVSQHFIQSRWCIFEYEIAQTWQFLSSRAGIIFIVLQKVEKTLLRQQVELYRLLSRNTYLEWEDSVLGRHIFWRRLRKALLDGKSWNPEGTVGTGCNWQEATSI
T1 sequence (Q9Y6Y9 17-160 limits assumed): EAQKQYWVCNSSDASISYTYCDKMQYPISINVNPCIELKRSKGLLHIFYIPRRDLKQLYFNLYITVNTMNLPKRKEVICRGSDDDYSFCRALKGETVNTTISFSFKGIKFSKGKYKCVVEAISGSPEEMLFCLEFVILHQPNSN

agonist profile (human TLR4 [1])	inhibition of 3D-6A-PHAD stimulation (human TLR4 [2])	IC50 (human TLR4 [2]; fixed PHAD 30 nM)	inhibition of PHAD stimulation (human TLR4 [2])	Compound	extent of inhibition at high dose (human TLR4 [2]; fixed PHAD 30 nM, peak dose 31.6 μM)
all but inactive	functioned as inhibitors	400 nM	showed inhibitory potential	CCCCCCCCCCCC(=O)OC(CCCCCCCCCCC)CC(=O)NC1C(OCC2OC(O)C(NC(=O)CC(O)CCCCCCCCCCC)C(O)C2O)OC(CO)C(OP(=O)(O)O)C1OC(=O)CC(O)CCCCCCCCCCC (centres unmarked) [ML4A]	approach a bottom plateau rather than achieving full inhibition
largely inactive	functioned as inhibitors	1320 nM	showed inhibitory potential	CCCCCCCCCCCC(=O)OC(CCCCCCCCCCC)CC(=O)NC1C(OCC2OC(O)C(NC(=O)CC(O)CCCCCCCCCCC)C(O)C2O)OC(CO)C(OP(=O)(O)O)C1O (centres unmarked) [ML3]	

Compound	agonist profile (human TLR4 [1])	inhibition of 3D-6A-PHAD stimulation (human TLR4 [2])	IC50 (human TLR4 [2]; fixed PHAD 30 nM)	inhibition of PHAD stimulation (human TLR4 [2])	extent of inhibition at high dose (human TLR4 [2]; fixed PHAD 30 nM, peak dose 31.6 μM)
CCCCCCCCCCCCCCCC(=O)OC(CCCCCCCCCCC)CC(=O)NC1C(O)OC(COC2OC(CO)C(OP(=O)(O)O)C(O)C2NC(=O)CC(CCCCCCCCCCC)OC(=O)CCCCCCCCCCC)C(O)C1O (centres unmarked) [ML4B]	largely inactive			only ML3 and ML4A showed inhibitory potential	
